Source: ChEMBL document CHEMBL3885881, “DrugMatrix”

Species on record: Rattus norvegicus
Assay: DrugMatrix - Regimen: Daily Repeat
Assay type: toxicity, organism-based, Sprague-Dawley
Parameters: regimen Daily Repeat, gender Male, age 6-8 weeks
Settings: in vivo, po, route oral GAVAGE, vehicle .5 % CMC; for BASOPHIL / EOSINOPHIL / ERYTHROCYTE COUNT / HEMATOCRIT / HEMOGLOBIN / LEUKOCYTE COUNT / LYMPHOCYTE / MEAN CORPUSCULAR HEMOGLOBIN / MEAN CORPUSCULAR HEMOGLOBIN CONCENTRATION / MEAN CORPUSCULAR VOLUME / MONOCYTE / NEUTROPHIL / PLATELET COUNT: tissue Blood; for ALANINE AMINOTRANSFERASE / ALBUMIN / ALKALINE PHOSPHATASE / ASPARTATE AMINOTRANSFERASE / BLOOD UREA NITROGEN / CHLORIDE / CHOLESTEROL / CREATINE PHOSPHOKINASE / CREATININE / GLUCOSE / PHOSPHORUS / POTASSIUM / SODIUM / TOTAL BILIRUBIN / TOTAL PROTEIN: tissue Plasma
[1] = 0 mg/kg, 72 h, dose level Control, time 3 day
[2] = 0 mg/kg, 120 h, dose level Control, time 5 day
[3] = 59 mg/kg, 72 h, dose level Low, time 3 day
[4] = 59 mg/kg, 120 h, dose level Low, time 5 day

`CC[C@@H](CO)NCCN[C@@H](CC)CO` [ETHAMBUTOL] was tested, and the BASOPHIL [1] was 0%, the EOSINOPHIL [1] was 0.33% and the “ERYTHROCYTE COUNT” value [1] was 6.2 x10E6/uL. For the same compound, the HEMATOCRIT [1] was 38.08%, the HEMOGLOBIN [1] was 14.92 G/DL and the “LEUKOCYTE COUNT” value [1] was 11.13 x10E3/uL. For the same compound, the LYMPHOCYTE [1] was 76%, the “MEAN CORPUSCULAR HEMOGLOBIN” value [1] was 24.1 pg and the “MEAN CORPUSCULAR HEMOGLOBIN CONCENTRATION” value [1] was 39.17 G/DL. For the same compound, the “MEAN CORPUSCULAR VOLUME” value [1] was 61.48 fL, the MONOCYTE [1] was 3.83% and the NEUTROPHIL [1] was 19.83%. The “PLATELET COUNT” value [1] was 1327.5 x10E3/uL, the “ALANINE AMINOTRANSFERASE” value [1] was 40.17 u/L and the ALBUMIN [1] was 4.07 G/DL. The “ALKALINE PHOSPHATASE” value [1] was 372 u/L, the “ASPARTATE AMINOTRANSFERASE” value [1] was 67.17 u/L and the “BLOOD UREA NITROGEN” value [1] was 18.83 mg/dL. The CHLORIDE [1] was 105.17 MEQ/L, the CHOLESTEROL [1] was 78.17 mg/dL and the “CREATINE PHOSPHOKINASE” value [1] was 149.17 u/L. For the same compound, the CREATININE [1] was 0.57 mg/dL, the GLUCOSE [1] was 185.17 mg/dL and the PHOSPHORUS [1] was 11.43 mg/dL. For the same compound, the POTASSIUM [1] was 6.78 MEQ/L, the SODIUM [1] was 152.83 MEQ/L and the “TOTAL BILIRUBIN” value [1] was 0.4 mg/dL. The “TOTAL PROTEIN” value [1] was 6.87 G/DL, the BASOPHIL [2] was 0% and the EOSINOPHIL [2] was 0%. For the same compound, the “ERYTHROCYTE COUNT” value [2] was 6.05 x10E6/uL, the HEMATOCRIT [2] was 36.55% and the HEMOGLOBIN [2] was 14.7 G/DL. For the same compound, the “LEUKOCYTE COUNT” value [2] was 11.8 x10E3/uL, the LYMPHOCYTE [2] was 86.83% and the “MEAN CORPUSCULAR HEMOGLOBIN” value [2] was 24.37 pg. The “MEAN CORPUSCULAR HEMOGLOBIN CONCENTRATION” value [2] was 40.32 G/DL, the “MEAN CORPUSCULAR VOLUME” value [2] was 60.47 fL and the MONOCYTE [2] was 0.83%. The NEUTROPHIL [2] was 12.33%, the “PLATELET COUNT” value [2] was 1177 x10E3/uL and the “ALANINE AMINOTRANSFERASE” value [2] was 41.83 u/L. The ALBUMIN [2] was 3.75 G/DL, the “ALKALINE PHOSPHATASE” value [2] was 377.5 u/L and the “ASPARTATE AMINOTRANSFERASE” value [2] was 60.83 u/L. The “BLOOD UREA NITROGEN” value [2] was 16 mg/dL, the CHLORIDE [2] was 105.67 MEQ/L and the CHOLESTEROL [2] was 67.83 mg/dL. The “CREATINE PHOSPHOKINASE” value [2] was 120.33 u/L, the CREATININE [2] was 0.6 mg/dL and the GLUCOSE [2] was 167.67 mg/dL. It also gave a PHOSPHORUS [2] of 10.03 mg/dL, a POTASSIUM [2] of 6.68 MEQ/L and an SODIUM [2] of 150.5 MEQ/L. For the same compound, the “TOTAL BILIRUBIN” value [2] was 0.57 mg/dL, the “TOTAL PROTEIN” value [2] was 6.25 G/DL and the BASOPHIL [3] was 0%. The EOSINOPHIL [3] was 0.67%, the “ERYTHROCYTE COUNT” value [3] was 6.09 x10E6/uL and the HEMATOCRIT [3] was 36.33%. The HEMOGLOBIN [3] was 14.2 G/DL, the “LEUKOCYTE COUNT” value [3] was 11.65 x10E3/uL and the LYMPHOCYTE [3] was 88%. For the same compound, the “MEAN CORPUSCULAR HEMOGLOBIN” value [3] was 23.7 pg, the “MEAN CORPUSCULAR HEMOGLOBIN CONCENTRATION” value [3] was 39.55 G/DL and the “MEAN CORPUSCULAR VOLUME” value [3] was 59.63 fL. The MONOCYTE [3] was 0.33%, the NEUTROPHIL [3] was 11% and the “PLATELET COUNT” value [3] was 1231 x10E3/uL. The “ALANINE AMINOTRANSFERASE” value [3] was 35.33 u/L, the ALBUMIN [3] was 3.63 G/DL and the “ALKALINE PHOSPHATASE” value [3] was 327.67 u/L. The “ASPARTATE AMINOTRANSFERASE” value [3] was 58.33 u/L, the “BLOOD UREA NITROGEN” value [3] was 11.67 mg/dL and the CHLORIDE [3] was 104.33 MEQ/L. For the same compound, the CHOLESTEROL [3] was 68 mg/dL, the “CREATINE PHOSPHOKINASE” value [3] was 185 u/L and the CREATININE [3] was 0.57 mg/dL. The GLUCOSE [3] was 165.33 mg/dL, the PHOSPHORUS [3] was 12.53 mg/dL and the POTASSIUM [3] was 6.5 MEQ/L. For the same compound, the SODIUM [3] was 149.67 MEQ/L, the “TOTAL BILIRUBIN” value [3] was 0.27 mg/dL and the “TOTAL PROTEIN” value [3] was 5.9 G/DL. For the same compound, the BASOPHIL [4] was 0%, the EOSINOPHIL [4] was 0% and the “ERYTHROCYTE COUNT” value [4] was 6.14 x10E6/uL. For the same compound, the HEMATOCRIT [4] was 38.6%, the HEMOGLOBIN [4] was 15.1 G/DL and the “LEUKOCYTE COUNT” value [4] was 11.85 x10E3/uL. The LYMPHOCYTE [4] was 89.33%, the “MEAN CORPUSCULAR HEMOGLOBIN” value [4] was 24.7 pg and the “MEAN CORPUSCULAR HEMOGLOBIN CONCENTRATION” value [4] was 39.2 G/DL. The “MEAN CORPUSCULAR VOLUME” value [4] was 63.03 fL, the MONOCYTE [4] was 0.67% and the NEUTROPHIL [4] was 10%. For the same compound, the “PLATELET COUNT” value [4] was 1247.67 x10E3/uL, the “ALANINE AMINOTRANSFERASE” value [4] was 27.67 u/L and the ALBUMIN [4] was 3.57 G/DL. For the same compound, the “ALKALINE PHOSPHATASE” value [4] was 273.67 u/L, the “ASPARTATE AMINOTRANSFERASE” value [4] was 55 u/L and the “BLOOD UREA NITROGEN” value [4] was 11.33 mg/dL. The CHLORIDE [4] was 105.67 MEQ/L, the CHOLESTEROL [4] was 89 mg/dL and the “CREATINE PHOSPHOKINASE” value [4] was 135.33 u/L. It also gave a CREATININE [4] of 0.5 mg/dL, a GLUCOSE [4] of 157.67 mg/dL and a PHOSPHORUS [4] of 11.8 mg/dL. For the same compound, the POTASSIUM [4] was 6.47 MEQ/L, the SODIUM [4] was 151.33 MEQ/L and the “TOTAL BILIRUBIN” value [4] was 0.2 mg/dL. For the same compound, the “TOTAL PROTEIN” value [4] was 6 G/DL.
